# From patent publication US7772183B2 (Bristol-Myers Squibb Company, priority 2005, dated 2010)
# Assays:
# Assay type in all cases: biochemical
# human liver cathepsin B = target: T1, human liver cathepsin B (Homo sapiens, UniProt P07858); assay: Specificity assay, cathepsin B; settings: read-out: Cathepsin B activity in the specificity assays
# T1 construct: purchased Sigma or EMDbiosciences; host or cells: human liver (as named)
# Description: The specificities of compounds of the present disclosure were determined against a variety of serine proteases: human neutrophil elastase (HNE), porcine pancreatic elastase (PPE) and human pancreatic chymotrypsin and one cysteine protease: human liver cathepsin B. In all cases, a 96-well plate format protocol using colorimetric p-nitroaniline (pNA) substrate or fluorometric Amino-Methyl-Coumarin (AMC) substrate, specific for each enzyme was used as described previously (PCT Patent Application No. WO 00/09543) with some modifications. All enzymes were purchased from Sigma or EMDbiosciences while the substrates were from Bachem.
# Each pNA assay included a 2 h enzyme-inhibitor pre-incubation at room temperature followed by addition of substrate and hydrolysis to ˜15% conversion as measured on a Spectramax Pro microplate reader. The cathepsin B assay was initiated by adding substrate to a 10 min enzyme-inhibitor pre-incubation at room temperature, and the assay plate measured immediately using the Cytofluor Series 4000. Compound concentrations varied from 100 to 0.4 μM depending on their potency.
# The final conditions for each assay were as follows: […]
# The percentage of inhibition was calculated using the formula: [1−((UVinh−UVblank)/(UVctl−UVblank))]×100 […]
# [1] = target: T2, HCV NS3/4A protease complex, H77 strain (Hepatitis C virus genotype 1a, UniProt P27958, C1454S/C1711G); assay: FRET peptide assay to monitor HCV NS3/4A proteolytic activity (H77 strain)
# T2 construct: DNA encoding the recombinant HCV NS3/4A protease complex (amino acids 1027 to 1711) for these strains; inferred from the pET21b vector and Ni-NTA purification; made in house; host or cells: Escherichia coli BL21 (DE3), pET21b
# Text: (§1) HCV NS3 protease complexes, derived from the BMS strain, H77 strain or J4L6S strain, were generated, as described below. These purified recombinant proteins were generated for use in a homogeneous assay (see below) to provide an indication of how effective compounds of the present disclosure would be in inhibiting HCV NS3 proteolytic activity.
# (§2) Serum from an HCV-infected patient was obtained from Dr. T. Wright, San Francisco Hospital. An engineered full-length cDNA (compliment deoxyribonucleic acid) template of the HCV genome (BMS strain) was constructed from DNA fragments obtained by reverse transcription-PCR (RT-PCR) of serum RNA (ribonucleic acid) and using primers selected on the basis of homology between other genotype 1a strains. From the determination of the entire genome sequence, a genotype 1a was assigned to the HCV isolate according to the classification of Simmonds et al. (See P Simmonds, K A Rose, S Graham, S W Chan, F McOmish, B C Dow, E A Follett, P L Yap and H Marsden, J. Clin. Microbiol., 31(6), 1493-1503 (1993)). […]
# [2] = target: T3, HCV NS3/4A protease complex, J4L6S strain (Hepatitis C virus genotype 1b, UniProt O92972, C1454S/C1711G); assay: FRET peptide assay to monitor HCV NS3/4A proteolytic activity (J4L6S strain)
# T3 construct: DNA encoding the recombinant HCV NS3/4A protease complex (amino acids 1027 to 1711) for these strains; inferred from the pET21b vector and Ni-NTA purification; made in house; host or cells: Escherichia coli BL21 (DE3), pET21b
# Text: as §1, §2
# T2 sequence (P27958 1027-1711 C1454S/C1711G, one chain of several): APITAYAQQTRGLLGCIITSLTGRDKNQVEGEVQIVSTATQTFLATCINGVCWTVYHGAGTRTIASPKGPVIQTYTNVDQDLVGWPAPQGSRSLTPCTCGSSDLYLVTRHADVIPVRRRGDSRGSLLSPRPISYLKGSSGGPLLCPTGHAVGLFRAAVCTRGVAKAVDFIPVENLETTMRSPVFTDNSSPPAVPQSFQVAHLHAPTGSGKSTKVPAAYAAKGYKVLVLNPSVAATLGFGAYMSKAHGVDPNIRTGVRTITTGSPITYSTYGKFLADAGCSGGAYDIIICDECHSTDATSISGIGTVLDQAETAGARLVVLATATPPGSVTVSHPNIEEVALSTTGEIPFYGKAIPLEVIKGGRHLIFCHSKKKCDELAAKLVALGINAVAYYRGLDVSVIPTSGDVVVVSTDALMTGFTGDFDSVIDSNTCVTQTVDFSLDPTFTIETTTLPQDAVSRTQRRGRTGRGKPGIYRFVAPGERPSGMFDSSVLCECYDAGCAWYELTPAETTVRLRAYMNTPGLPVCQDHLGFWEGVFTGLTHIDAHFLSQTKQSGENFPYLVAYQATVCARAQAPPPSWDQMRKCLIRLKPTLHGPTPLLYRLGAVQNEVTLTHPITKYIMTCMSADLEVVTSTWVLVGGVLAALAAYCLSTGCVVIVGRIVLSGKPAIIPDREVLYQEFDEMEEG
# T3 sequence (O92972 1027-1711 C1454S/C1711G, one chain of several): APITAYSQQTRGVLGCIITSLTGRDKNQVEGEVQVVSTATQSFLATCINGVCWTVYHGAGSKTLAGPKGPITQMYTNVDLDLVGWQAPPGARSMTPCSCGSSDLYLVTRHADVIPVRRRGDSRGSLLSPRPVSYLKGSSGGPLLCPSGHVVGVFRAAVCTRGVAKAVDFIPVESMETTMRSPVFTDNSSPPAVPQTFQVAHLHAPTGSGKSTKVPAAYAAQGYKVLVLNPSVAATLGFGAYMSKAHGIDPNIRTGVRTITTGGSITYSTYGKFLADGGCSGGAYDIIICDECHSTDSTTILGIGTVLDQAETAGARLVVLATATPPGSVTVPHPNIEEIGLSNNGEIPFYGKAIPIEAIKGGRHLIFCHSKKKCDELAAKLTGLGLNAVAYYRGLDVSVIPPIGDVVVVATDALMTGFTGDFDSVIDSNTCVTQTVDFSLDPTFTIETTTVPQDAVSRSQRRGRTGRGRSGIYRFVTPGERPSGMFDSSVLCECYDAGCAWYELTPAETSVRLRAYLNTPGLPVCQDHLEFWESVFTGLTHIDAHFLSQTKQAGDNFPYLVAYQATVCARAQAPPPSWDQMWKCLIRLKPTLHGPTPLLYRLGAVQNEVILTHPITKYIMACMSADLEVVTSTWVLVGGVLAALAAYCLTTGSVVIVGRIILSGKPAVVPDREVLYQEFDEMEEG
structure (smiles),measurement,setting,value
"CC(C)(C)OC(=O)N[C@H]1CCCCC/C=C\[C@@H]2C[C@@]2(C(=O)NS(=O)(=O)C2CC2)NC(=O)[C@@H]2C[C@@H](OC(=O)c3ccc(C#N)cc3)CN2C1=O [Compound 26, 18-(4-cyanobenzoyloxy)-14-tert-butoxycarbonylamino-4-cyclopropylsulfonylaminocarbonyl-2,15-dioxo-3,16-diazatricyclo-[14.3.0.0^4,6]-nonadec-7-ene]",IC50,human liver cathepsin B,≥ 100000 nM
same,IC50,[1],0.53 nM
same,IC50,[2],0.23 nM
